Measurements: patent US11013745B2, “Triazolopyrimidine, triazolopyridine compounds, and the composition thereof for treating PRC2-mediated diseases” (SHANGHAI INSTITUTE OF MATERIA MEDICA, CHINESE ACADEMY OF …, priority 2017, dated 2021)

Legend:
[1] = Oral pharmacokinetics in rats; assay type: in vivo; settings: male, SD, plasma, rat, intragastric, 3 mg/kg
Protocol: 1. Healthy male SD rats were used as test animals, EED226, […]-07 (3 mg/kg) were administered intragastrically, and the drug concentrations in rat plasma were determined by LC/MS/MS method at different time points after drug administration. The pharmacokinetic behavior of the compounds of the present invention in rats was studied, and the pharmacokinetic properties were evaluated. 2. The test animals were healthy adult male SD rats, with 3 rats in each group, purchased from Shanghai Xipuer-Bikai Laboratory Animal Limited Company. 3. Drug preparation: Compounds EED226, […] were dissolved in DMSO/0.5% HPMC (5/95, v/v) for preparation. The compound SL-ZYE-07 was dissolved in 0.5% HPMC (containing 0.5% Tween 80), vortexed, and sonicated to disperse the solid matter uniformly to obtain a pale white suspension. 4, Operation: EED226, […]-07 were administered to rats by intragastric administration (3 mg/kg), 45 μL of blood was taken through the femoral vein at 0.25, 0.5, 1, 2, 4, 8, 24 hour after administration, and centrifuged in a heparinized centrifuge tube for 5 min, and the plasma samples were separated for analysis. The contents of test compounds in rat plasma after intragastric administration of different compounds were determined by Liquid chromatography-mass spectrometry (LC-MS/MS).

Pfeiffer cells = assay: Pfeiffer cell growth inhibition in a long term (11 days), CellTiter-Glo; assay type: cell-based, Human; settings: Homo sapiens, 264 h, 11 days, read-out: Experiment on Pfeiffer cell growth inhibition in a long term (11 days IC50)
Summary of the method: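 Exponentially growing cells seeded at 1*10E5 cells/mL and treated the same day with a concentration range. Media and compound were refreshed at days 4 and 7. Viability was read by CellTiter-Glo after 11 days and GI50 values were derived.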

Karpas-422 cells = assay: Growth inhibition of Karpas-422 cells in a long term (11 days), CellTiter-Glo; assay type: cell-based, Human; settings: Homo sapiens, 264 h; Karpas-422, 11 days; read-out: Karpas-422 (11 days) IC50
[2] = Liver microsomal stability (mouse); assay type: in vitro ADME
[3] = Liver microsomal stability (human); assay type: in vitro ADME
Summary of the method: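 Human, mouse and rat liver microsomes were incubated with NADPH and MgCl2 in 0.1 M Tris pH 7.4, with compound at a 0.2 μM working solution. Remaining compound was quantified by LC/MS over the incubation time. The slope of log remaining versus time gave Clint, which was scaled to predicted Cl, Clhep and % MF.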

**Q.** Which results are given for `CS(=O)(=O)N1CC=C(c2cnc(NCc3c(F)ccc4c3CCO4)n3cnnc23)CC1` [E-Y13]?
**A.** AUC(0-t) [1]: 529 ± 150 ng·h/mL; AUC(0-inf) ([1]; extrapolated to infinity, read-out: AUCINF_obs): 539 ± 150 ng·h/mL; MRT inf ([1]; read-out: Average residence time MRTINF_obs): 2.06 ± 0.484 h; half-life ([1]; read-out: Half life T1/2 (converted)): 1.37 ± 0.212 h; Cmax ([1]; read-out: Peak concentration Cmax): 376 ± 273 ng/mL; IC50 (Pfeiffer cells): 3.2 nM; IC50 (Karpas-422 cells): 13 nM; Clearance rate in vivo Clint In Vivo Extpl ([2]; mouse liver microsomes): 1.50 mL/min; Intrinsic clearance rate in vivo Clint In Vitro ([2]; mouse liver microsomes): 22.2 mL/min/gprot; Liver clearance rate Clint Hep In Vivo Extpl ([2]; mouse liver microsomes): 1.00 mL/min; Metabolic bioavailability MF % ([2]; mouse liver microsomes): 66.7%; half-life ([2]; mouse, liver microsomes, pH 7.4, mouse liver microsomes, read-out: Half life T-half): 1.58 h; Clearance rate in vivo Clint In Vivo Extpl ([3]; human liver microsomes): 1732 mL/min; Intrinsic clearance rate in vivo Clint In Vitro ([3]; human liver microsomes): 22.6 mL/min/gprot; Liver clearance rate Clint Hep In Vivo Extpl ([3]; human liver microsomes): 804 mL/min; half-life ([3]; human, liver microsomes, pH 7.4, human liver microsomes, read-out: Half life T-half): 1.55 h; bioavailability ([3]; human, liver microsomes, pH 7.4, human liver microsomes, read-out: Metabolic bioavailability MF %): 46.4%
